Where a name gives a salt, the structure may show the parent alone.
Assay: Water adsorption of fingolimod salts under set atmospheric humidity (hygrostat)
Assay type: physicochemical
Conditions: atmospheric humidity set at 75% by means of a hygrostat; after 2 weeks
Text: In addition, experiments on various salts of fingolimod have shown that depending on the ambient conditions, the possibility of water adsorption exists. […] Water adsorption on this scale is detrimental to the storage stability of dosage forms containing fingolimod, especially in the case of tablets, granules or powders.

increase of water content: 7 fold
Structure (SMILES): CCCCCCCCc1ccc(CCC(N)(CO)CO)cc1 [hydrochloride of fingolimod]

— US20130102683A1, “MELT-GRANULATED FINGOLIMOD” (RATIOPHARM GMBH, priority 2010, published 2013)
